Experiments:
TAK1 [1] = target: T1, TAK1 (Homo sapiens, UniProt O43318); assay: KINOMEscan binding to TAK1; conditions: for binding to TAK1 in KINOMEscan: concentration of 1 μM
T1 sequence (O43318 1-606): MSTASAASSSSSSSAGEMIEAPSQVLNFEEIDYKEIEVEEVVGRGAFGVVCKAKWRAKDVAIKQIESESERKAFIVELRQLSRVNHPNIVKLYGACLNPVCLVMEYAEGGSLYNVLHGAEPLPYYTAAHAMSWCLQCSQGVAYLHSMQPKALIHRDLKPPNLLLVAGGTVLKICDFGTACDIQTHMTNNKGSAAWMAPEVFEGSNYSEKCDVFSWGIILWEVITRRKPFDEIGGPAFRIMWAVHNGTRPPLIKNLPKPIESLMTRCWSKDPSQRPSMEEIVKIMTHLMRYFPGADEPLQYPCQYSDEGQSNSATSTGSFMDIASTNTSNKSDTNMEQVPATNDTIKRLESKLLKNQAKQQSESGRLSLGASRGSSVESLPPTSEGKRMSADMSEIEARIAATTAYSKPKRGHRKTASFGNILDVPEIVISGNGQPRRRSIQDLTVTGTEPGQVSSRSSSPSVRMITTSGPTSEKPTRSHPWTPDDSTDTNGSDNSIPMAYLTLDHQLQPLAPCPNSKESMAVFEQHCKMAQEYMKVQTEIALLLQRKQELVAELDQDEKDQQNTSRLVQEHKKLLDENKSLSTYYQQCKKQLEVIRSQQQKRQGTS

TAK1 [2] = target: T2, TAK1 (Homo sapiens, UniProt O43318); assay: Mass spectrometry analysis of purified TAK1 incubated with compound; assay type: binding; conditions: Fig S3
T2 sequence (O43318 with tags, fused parts or gaps): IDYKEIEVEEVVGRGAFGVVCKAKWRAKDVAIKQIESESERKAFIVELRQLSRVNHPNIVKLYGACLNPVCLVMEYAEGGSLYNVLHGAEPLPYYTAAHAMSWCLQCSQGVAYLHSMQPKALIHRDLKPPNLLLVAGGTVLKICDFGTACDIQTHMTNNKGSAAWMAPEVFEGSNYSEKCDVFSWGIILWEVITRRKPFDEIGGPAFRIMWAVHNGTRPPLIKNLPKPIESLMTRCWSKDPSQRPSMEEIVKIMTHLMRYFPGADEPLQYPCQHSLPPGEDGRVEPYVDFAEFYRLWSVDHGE

ERK2 = ERK2 (Homo sapiens, UniProt P28482); assay: Z'-Lyte activity assay, ERK2; assay type: biochemical; conditions: compound incubation time of 60 min
[3] = tested on: panel of 468 kinases and mutants; assay: KINOMEscan in vitro ATP-site competition binding assay, kinome selectivity; parameters: species or system human; conditions: KINOMEscan at 1 μM; for selectivity score S(1): 468 kinases and mutants, kinases with scores less than 1
TAK1 [4] = target: T3, TAK1 (Homo sapiens, UniProt O43318); assay: Time-dependent experiments, Kinact/Ki determination; assay type: binding
T3 sequence (O43318 1-303 limits assumed): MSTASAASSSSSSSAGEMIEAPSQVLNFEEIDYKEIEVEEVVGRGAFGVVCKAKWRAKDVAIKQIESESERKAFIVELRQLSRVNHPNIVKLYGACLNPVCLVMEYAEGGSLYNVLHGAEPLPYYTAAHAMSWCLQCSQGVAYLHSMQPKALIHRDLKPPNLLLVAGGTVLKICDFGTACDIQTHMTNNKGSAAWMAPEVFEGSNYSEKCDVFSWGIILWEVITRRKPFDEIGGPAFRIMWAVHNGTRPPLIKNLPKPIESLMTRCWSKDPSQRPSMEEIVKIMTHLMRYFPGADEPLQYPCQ

ERK2, sequence (P28482 2-360): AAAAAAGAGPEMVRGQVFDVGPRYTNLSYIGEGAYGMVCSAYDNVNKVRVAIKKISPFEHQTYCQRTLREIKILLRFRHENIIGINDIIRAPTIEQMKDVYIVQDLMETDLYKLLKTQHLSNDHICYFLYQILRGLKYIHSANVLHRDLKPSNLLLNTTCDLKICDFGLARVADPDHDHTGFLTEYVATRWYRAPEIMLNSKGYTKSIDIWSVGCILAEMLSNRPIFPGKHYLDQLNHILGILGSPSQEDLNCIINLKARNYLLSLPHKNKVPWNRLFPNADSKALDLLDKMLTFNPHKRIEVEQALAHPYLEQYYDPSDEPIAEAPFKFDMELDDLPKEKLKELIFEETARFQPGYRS

SMILES: COc1cc(O)c2c(c1)/C=C/C[C@H](O)[C@H](O)C(=O)/C=C\C[C@H](C)OC2=O [5Z7, 5Z-7-oxozeaenol, reference compound]
- inhibition score against TAK1 in KINOMEscan (TAK1 [1]; 10 μM): moderate inhibition score
- binding to TAK1 in KINOMEscan (TAK1 [1]): did not display strong binding

SMILES: C=CC(=O)Nc1ccccc1Oc1nc(Nc2ccc(N3CCN(C)CC3)cc2)ncc1Cl [compound 2, N-(2-((5-chloro-2-((4-(4-methylpiperazin-1-yl)phenyl)amino)pyrimidin-4-yl)oxy)phenyl)acrylamide]
- labeling of TAK1 residue (TAK1 [2]): exclusive labeling of Cys174

SMILES: C=CC(=O)Nc1ccccc1Nc1nc(Nc2ccc(N3CCN(C)CC3)cc2)ncc1Cl [compound 5, N-(2-((5-chloro-2-((4-(4-methylpiperazin-1-yl)phenyl)amino)pyrimidin-4-yl)amino)phenyl)acrylamide]
- Enzymatic IC50s ERK2 (ERK2): weak activity
- binding to kinases with a cysteine at the DFG-1 position [3]: binds to TAK1 and ten other kinases with a cysteine at the DFG-1 position
- selectivity score S(1) [3]: 0.10
- kinact/KI (TAK1 [4]): 6870 M⁻¹ s⁻¹

SMILES: C=CC(=O)Oc1ccccc1Nc1nc(Nc2ccc(N3CCN(C)CC3)cc2)ncc1Cl [compound 7, 2-((5-chloro-2-((4-(4-methylpiperazin-1-yl)phenyl)amino)pyrimidin-4-yl)amino)phenyl acrylate]
- selectivity score S(1) [3]: 0.19

SMILES: CCC(=O)Nc1ccccc1Nc1nc(Nc2ccc(N3CCN(C)CC3)cc2)ncc1Cl [compound 9]
- binding to kinases with a cysteine at the DFG-1 position [3]: hits no kinases with a cysteine at the DFG-1 position
- selectivity score S(1) [3]: 0.10

SMILES: C=CC(=O)Nc1ccccc1Oc1nc(Nc2cnn(C(F)F)c2)ncc1Cl [compound 23]
- selectivity score S(5) [3]: 0.1
- binding to TAK1 in KINOMEscan (TAK1 [1]): TAK1 was not ranked among the strongest hits

SMILES: C=CC(=O)Nc1ccccc1Oc1nc(Nc2cnn(CCOC)c2)ncc1Cl [compound 25]
- selectivity score S(5) [3]: 0.03
- binding to TAK1 in KINOMEscan (TAK1 [1]): TAK1 was not ranked among the strongest hits
